ChEMBL document CHEMBL4765458, “Synthesis and biological evaluation of organoselenium (NSAIDs-SeCN and SeCF) derivatives as potential anticancer agents” (Eur J Med Chem, 2020)
Activity calls are given as the source filed them. The rule behind the calls is not given here.

Legend:
[1] = Antioxidant activity assessed as bleomycin-Fe2+-induced DNA degradation by measuring absorbance at 0.1 mg/ml after 1 hr; assay type: functional
[2] = Antioxidant activity assessed as DPPH radical scavenging activity incubated for 30 mins under dark condition relative to control; assay type: functional; set-up: concentration or dose not given beside the values
[3] = system: SW480; experiment: Cytotoxicity against human SW480 cells assessed as reduction in cell viability measured after 72 hrs by MTT assay; assay type: functional, cell-based; details: SW480, 72 h
[4] = system: HeLa; experiment: Cytotoxicity against human HeLa cells assessed as reduction in cell viability measured after 24 hrs by MTT assay; assay type: functional, cell-based
[5] = system: MCF7; experiment: Induction of apoptosis in human MCF7 cells assessed as down regulation of Bcl-2 expression at IC50 measured after 48 hrs by ELISA relative to control; assay type: functional
[6] = system: SW480; experiment: Cytotoxicity against human SW480 cells assessed as reduction in cell viability measured after 48 hrs by MTT assay; assay type: functional, cell-based; details: SW480, 48 h
[7] = system: A549; experiment: Cytotoxicity against human A549 cells assessed as reduction in cell viability measured after 24 hrs by MTT assay; assay type: functional, cell-based; details: A549, 24 h
[8] = system: SW480; experiment: Cytotoxicity against human SW480 cells assessed as reduction in cell viability measured after 24 hrs by MTT assay; assay type: functional, cell-based; details: SW480, 24 h
[9] = system: A549; experiment: Cytotoxicity against human A549 cells assessed as reduction in cell viability measured after 72 hrs by MTT assay; assay type: functional, cell-based; details: A549, 72 h
[10] = system: MCF7; experiment: Induction of apoptosis in human MCF7 cells assessed as up regulation of caspase-3 expression at IC50 measured after 48 hrs by ELISA relative to control; assay type: functional
[11] = system: MCF7; experiment: Cytotoxicity against human MCF7 cells assessed as reduction in cell viability measured after 24 hrs by MTT assay; assay type: functional, cell-based; details: MCF7, 24 h
[12] = system: A549; experiment: cells; details: Homo sapiens, A549, 48 h
Description: Cytotoxicity against human A549 cells assessed as reduction in cell viability measured after 48 hrs by MTT assay

[13] = system: MCF7; experiment: Cytotoxicity against human MCF7 cells assessed as reduction in cell viability measured after 48 hrs by MTT assay; assay type: functional, cell-based; details: MCF7, 48 h
[14] = system: HeLa; experiment: Cytotoxicity against human HeLa cells assessed as reduction in cell viability measured after 48 hrs by MTT assay; assay type: functional, cell-based
[15] = system: HeLa; experiment: Cytotoxicity against human HeLa cells assessed as reduction in cell viability measured after 72 hrs by MTT assay; assay type: functional, cell-based
[16] = system: MCF7; experiment: Cytotoxicity against human MCF7 cells assessed as reduction in cell viability measured after 72 hrs by MTT assay; assay type: functional, cell-based; details: MCF7, 72 h
[17] = Antioxidant activity assessed as GPx-like activity by measuring oxidation of NADPH to NADP+ by NADPH-reductase coupled assay; assay type: functional
[18] = system: MCF7; experiment: Induction of apoptosis in human MCF7 cells assessed as up regulation of IL-2 expression at IC50 measured after 48 hrs by ELISA relative to control; assay type: functional

## O=C1O[C@H]([C@@H](O)CO)C(O)=C1O
[1]
  deltaA: 295
[2]
  inhibition: 92.4%

## CC(C)Cc1ccc(C(C)C(=O)NCCC[Se]C(F)(F)F)cc1 (stereo unspecified)
[3]
  IC50: 4.2 µM
[4]
  IC50: 11.5 µM
[5]
  Activity: >50%
[6]
  IC50: 3.3 µM
[7]
  IC50: 9.4 µM
[8]
  IC50: 4.9 µM
[9]
  IC50: 18.5 µM
[10]
  Activity: Active
[11]
  IC50: 3.4 µM
[12]
  IC50: 15.2 µM
[13]
  IC50: 4.3 µM
[14]
  IC50: 17.4 µM
[2]
  inhibition: 68.7%
[15]
  IC50: 19.7 µM
[16]
  IC50: 2.8 µM
[17]
  Activity: Active
[18]
  Activity: Active

## CC(=O)Oc1ccccc1C(=O)NCCC[Se]C(F)(F)F
[3]
  IC50: 7.8 µM
[4]
  IC50: 28.7 µM
[5]
  Activity: >50%
[6]
  IC50: 7.2 µM
[7]
  IC50: 16.4 µM
[8]
  IC50: 8.2 µM
[9]
  IC50: 17.3 µM
[10]
  fold change (FC): 5
[11]
  IC50: 3.5 µM
[12]
  IC50: 18.6 µM
[13]
  IC50: 4.2 µM
[14]
  IC50: 26.3 µM
[2]
  inhibition: 72.5%
[15]
  IC50: 15.4 µM
[16]
  IC50: 4.4 µM
[17]
  Activity: Active
[18]
  Activity: Active
